Values quoted from earlier work in patent US20060147391A1, “Composition for enhancing oral health” (priority 2002, published 2006).

System: oral microorganisms (intraoral bacteria such as Streptococcus mutans, Streptococcus sobrinus and Porphyromonas gingivalis)
Conditions: reported result in vitro (Korean publications, WO 00/67711)

SMILES: CC(C)=CCC[C@@H](C)c1ccc(C)c(O)c1 [Xanthorrhizol]
- antibacterial activity against oral microorganisms: excellent antibacterial activity
